What was measured:
Assay type in all cases: in vivo
[1] = test system: ABUTH: velvetleaf (Abutilon theophrasti); test: Post-emergent herbicidal test, velvetleaf; conditions: post-emergence, 336 h, 14 days after application, read-out: Visual Growth Reduction (%) 14 Days After Application ABUTH
Method: (§1) Post-Emergent Test: Seeds or nutlets of the desired test plant species were planted in Sun Gro Metro-Mix® 360 planting mixture, which typically has a pH of 6.0 to 6.8 and an organic matter content of about 30 percent, in plastic pots with a surface area of 64 square centimeters (cm^2). When required to ensure good germination and healthy plants, a fungicide treatment and/or other chemical or physical treatment was applied. The plants were grown for 7-21 d in a greenhouse with an approximate 15 h photoperiod which was maintained at about 23-29° C. during the day and 22-28° C. during the night. Nutrients and water were added on a regular basis and supplemental lighting was provided with overhead metal halide 1000-Watt lamps as necessary. The plants were employed for testing when they reached the first or second true leaf stage.
(§2) A weighed amount, determined by the highest rate to be tested, of each test compound was placed in a 25 mL glass vial and was dissolved in 4 mL of a 97:3 v/v mixture of acetone and DMSO to obtain concentrated stock solutions. […] The concentrated stock solutions obtained were diluted with 20 mL of an aqueous mixture containing acetone, water, isopropyl alcohol, DMSO, Atplus 411F crop oil concentrate, and Triton® X-155 surfactant in a 48.5:39:10:1.5:1.0:0.02 v/v ratio to obtain spray solutions containing the highest application rates. Additional application rates were obtained by serial dilution of 12 mL of the high rate solution into a solution containing 2 mL of a 97:3 v/v mixture of acetone and DMSO and 10 mL of an aqueous mixture containing acetone, water, isopropyl alcohol, DMSO, Atplus 411F crop oil concentrate, and Triton X-155 surfactant in a 48.5:39:10:1.5:1.0:0.02 v/v ratio to obtain ½×, ¼×, ⅛× and 1/16× rates of the high rate. Compound requirements are based upon a 12 mL application volume at a rate of 187 liters per hectare (L/ha). Formulated compounds were applied to the plant material with an overhead Mandel track sprayer equipped with 8002E nozzles calibrated to deliver 187 L/ha over an application area of 0.503 square meters at a spray height of 18 inches (43 cm) above the average plant canopy height. Control plants were sprayed in the same manner with the solvent blank.
(§3) The treated plants and control plants were placed in a greenhouse as described above and watered by subirrigation to prevent wash-off of the test compounds. After 14 d, the condition of the test plants as compared with that of the untreated plants was determined visually and scored on a scale of 0 to 100 percent where 0 corresponds to no injury and 100 corresponds to complete kill.

[2] = test system: SETFA: giant foxtail (Setaria faberi); test: Post-emergent herbicidal test, giant foxtail; conditions: post-emergence, 336 h, 14 days after application, read-out: Visual Growth Reduction (%) 14 Days After Application SETFA
Method: as §1, §2, §3

[3] = test system: VIOTR: wild violet (Viola tricolor); test: Post-emergent herbicidal test, wild violet; conditions: post-emergence, 336 h, 14 days after application, read-out: Visual Growth Reduction (%) 14 Days After Application VIOTR
Method: as §1, §2, §3

[4] = test system: EPHHL: wild poinsettia (Euphorbia heterophylla); test: Post-emergent herbicidal test, wild poinsettia; conditions: post-emergence, 336 h, 14 days after application, read-out: Visual Growth Reduction (%) 14 Days After Application EPHHL
Method: as §1, §2, §3

[5] = test system: DIGSA: large crabgrass (Digitaria sanguinalis); test: Post-emergent herbicidal test, large crabgrass; conditions: post-emergence, 336 h, 14 days after application, read-out: Visual Growth Reduction (%) 14 Days After Application DIGSA
Method: as §1, §2, §3

[6] = test system: ECHCG: barnyardgrass (Echinochloa crus-galli); test: Post-emergent herbicidal test, barnyardgrass; conditions: post-emergence, 336 h, 14 days after application, read-out: Visual Growth Reduction (%) 14 Days After Application ECHCG
Method: as §1, §2, §3

[7] = test system: CYPES: yellow nutsedge (Cyperus esculentus); test: Post-emergent herbicidal test, yellow nutsedge; conditions: post-emergence, 336 h, 14 days after application, read-out: Visual Growth Reduction (%) 14 Days After Application CYPES
Method: as §1, §2, §3

[8] = test system: BRSNN: oilseed rape, canola (Brassica napus); test: Post-emergent herbicidal test, oilseed rape; conditions: post-emergence, 336 h, 14 days after application, read-out: Visual Growth Reduction (%) 14 Days After Application BRSNN
Method: as §1, §2, §3

[9] = test system: SORVU: shattercane (Sorghum bicolor); test: Post-emergent herbicidal test, shattercane; conditions: post-emergence, 336 h, 14 days after application, read-out: Visual Growth Reduction (%) 14 Days After Application SORVU
Method: as §1, §2, §3

[10] = test system: CIRAR: Canada thistle (Cirsium arvense); test: Post-emergent herbicidal test, Canada thistle; conditions: post-emergence, 336 h, 14 days after application, read-out: Visual Growth Reduction (%) 14 Days After Application CIRAR
Method: as §1, §2, §3

[11] = test system: IPOHE: ivyleaf morningglory (Ipomoea hederacea); test: Post-emergent herbicidal test, ivyleaf morningglory; conditions: post-emergence, 336 h, 14 days after application, read-out: Visual Growth Reduction (%) 14 Days After Application IPOHE
Method: as §1, §2, §3

COC(=O)c1nc(-c2ccc(Br)c3c2OC(F)(F)O3)c(F)c(N)c1Cl [Compound 9]
pest or weed control at 17.5 g/ha ([1]; 17.5 g ai/ha): 80%
pest or weed control at 35 g/ha ([1]; 35 g ai/ha): 85%
pest or weed control at 70 g/ha ([1]; 70 g ai/ha): 85%
pest or weed control at 140 g/ha ([1]; 140 g ai/ha): 85%
pest or weed control at 17.5 g/ha ([2]; 17.5 g ai/ha): 0%
pest or weed control at 35 g/ha ([2]; 35 g ai/ha): 0%
pest or weed control at 70 g/ha ([2]; 70 g ai/ha): 0%
pest or weed control at 140 g/ha ([2]; 140 g ai/ha): 0%
pest or weed control at 17.5 g/ha ([3]; 17.5 g ai/ha): 0%
pest or weed control at 35 g/ha ([3]; 35 g ai/ha): 0%
pest or weed control at 70 g/ha ([3]; 70 g ai/ha): 20%
pest or weed control at 140 g/ha ([3]; 140 g ai/ha): 20%
pest or weed control at 17.5 g/ha ([4]; 17.5 g ai/ha): 0%
pest or weed control at 35 g/ha ([4]; 35 g ai/ha): 0%
pest or weed control at 70 g/ha ([4]; 70 g ai/ha): 0%
pest or weed control at 140 g/ha ([4]; 140 g ai/ha): 0%
pest or weed control at 17.5 g/ha ([5]; 17.5 g ai/ha): 0%
pest or weed control at 35 g/ha ([5]; 35 g ai/ha): 0%
pest or weed control at 70 g/ha ([5]; 70 g ai/ha): 0%
pest or weed control at 140 g/ha ([5]; 140 g ai/ha): 0%
pest or weed control at 17.5 g/ha ([6]; 17.5 g ai/ha): 0%
pest or weed control at 35 g/ha ([6]; 35 g ai/ha): 0%
pest or weed control at 70 g/ha ([6]; 70 g ai/ha): 0%
pest or weed control at 140 g/ha ([6]; 140 g ai/ha): 0%
pest or weed control at 17.5 g/ha ([7]; 17.5 g ai/ha): 0%
pest or weed control at 35 g/ha ([7]; 35 g ai/ha): 0%
pest or weed control at 70 g/ha ([7]; 70 g ai/ha): 0%
pest or weed control at 140 g/ha ([7]; 140 g ai/ha): 0%
pest or weed control at 17.5 g/ha ([8]; 17.5 g ai/ha): 60%
pest or weed control at 35 g/ha ([8]; 35 g ai/ha): 60%
pest or weed control at 70 g/ha ([8]; 70 g ai/ha): 75%
pest or weed control at 140 g/ha ([8]; 140 g ai/ha): 75%
pest or weed control at 17.5 g/ha ([9]; 17.5 g ai/ha): 0%
pest or weed control at 35 g/ha ([9]; 35 g ai/ha): 0%
pest or weed control at 70 g/ha ([9]; 70 g ai/ha): 10%
pest or weed control at 140 g/ha ([9]; 140 g ai/ha): 10%
pest or weed control at 17.5 g/ha ([10]; 17.5 g ai/ha): 70%
pest or weed control at 35 g/ha ([10]; 35 g ai/ha): 80%
pest or weed control at 70 g/ha ([10]; 70 g ai/ha): 85%
pest or weed control at 140 g/ha ([10]; 140 g ai/ha): 85%
pest or weed control at 17.5 g/ha ([11]; 17.5 g ai/ha): 0%
pest or weed control at 35 g/ha ([11]; 35 g ai/ha): 0%
pest or weed control at 70 g/ha ([11]; 70 g ai/ha): 0%
pest or weed control at 140 g/ha ([11]; 140 g ai/ha): 0%

— patent publication US11718604B2, “4-amino-6-(1,3-benzodioxole)picolinates and their use as herbicides” (Dow AgroSciences LLC, priority 2018, dated 2023)
